# Source: patent US9278963B2, “Pyrimidine hydroxy amide compounds as histone deacetylase inhibitors” (Acetylon Pharmaceuticals, Inc., priority 2013, dated 2016)
# Tests used:
# HDAC1 = HDAC1 (Homo sapiens (Human), UniProt Q13547); experiment: HDAC enzyme assay, HDAC1; assay type: biochemical
# Procedure: (§1) Compounds for testing were diluted in DMSO to 50 fold the final concentration and a ten point three fold dilution series was made. The compounds were diluted in assay buffer (50 mM HEPES, pH 7.4, 100 mM KCl, 0.001% Tween-20, 0.05% BSA, 20 μM TCEP) to 6 fold their final concentration. The HDAC enzymes (purchased from BPS Biosciences) were diluted to 1.5 fold their final concentration in assay buffer. The tripeptide substrate and trypsin at 0.05 μM final concentration were diluted in assay buffer at 6 fold their final concentration. The final enzyme concentrations used in these assays were 3.3 ng/ml (HDAC1), 0.2 ng/ml (HDAC2), 0.08 ng/ml (HDAC3) and 2 ng/ml (HDAC6). The final substrate concentrations used were 16 μM (HDAC1), 10 μM (HDAC2), 17 μM (HDAC3) and 14 μM (HDAC6).
# (§2) Five μl of compounds and 20 μl of enzyme were added to wells of a black, opaque 384 well plate in duplicate. Enzyme and compound were incubated together at room temperature for 10 minutes. Five μ1 of substrate was added to each well, the plate was shaken for 60 seconds and placed into a Victor 2 microtiter plate reader. The development of fluorescence was monitored for 60 min and the linear rate of the reaction was calculated. The IC50 was determined using Graph Pad Prism by a four parameter curve fit.
# HDAC3 = HDAC3 (Homo sapiens (Human), UniProt O15379); experiment: HDAC enzyme assay, HDAC3; assay type: biochemical
# Chain of HDAC3 (O15379 whole entry): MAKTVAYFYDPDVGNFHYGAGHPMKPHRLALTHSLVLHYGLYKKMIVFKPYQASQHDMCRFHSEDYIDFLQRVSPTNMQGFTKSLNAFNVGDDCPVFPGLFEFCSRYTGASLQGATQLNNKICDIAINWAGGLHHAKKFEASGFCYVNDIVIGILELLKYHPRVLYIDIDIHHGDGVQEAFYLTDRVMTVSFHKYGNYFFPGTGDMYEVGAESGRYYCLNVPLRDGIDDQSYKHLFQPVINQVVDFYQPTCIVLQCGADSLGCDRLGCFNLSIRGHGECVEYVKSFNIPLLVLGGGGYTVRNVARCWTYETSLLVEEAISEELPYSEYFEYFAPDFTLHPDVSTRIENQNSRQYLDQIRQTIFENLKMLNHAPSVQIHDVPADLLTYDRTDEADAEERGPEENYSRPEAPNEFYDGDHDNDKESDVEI
# Chain of HDAC3 (Q9Y618 395-489 partner): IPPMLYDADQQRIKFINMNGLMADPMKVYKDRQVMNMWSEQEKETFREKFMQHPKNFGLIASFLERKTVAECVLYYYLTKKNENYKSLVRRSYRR
# Procedure: as §1, with “The HDAC enzymes (purchased from BPS Biosciences) were diluted to 1.5 fold their final concentration in assay buffer.” left out, “(HDAC6).” for “(HDAC6). The final substrate concentrations used were 16 μM (HDAC1), 10 μM (HDAC2), 17 μM (HDAC3) and 14 μM (HDAC6).”
# as §2
# Chain of HDAC1 (Q13547 whole entry): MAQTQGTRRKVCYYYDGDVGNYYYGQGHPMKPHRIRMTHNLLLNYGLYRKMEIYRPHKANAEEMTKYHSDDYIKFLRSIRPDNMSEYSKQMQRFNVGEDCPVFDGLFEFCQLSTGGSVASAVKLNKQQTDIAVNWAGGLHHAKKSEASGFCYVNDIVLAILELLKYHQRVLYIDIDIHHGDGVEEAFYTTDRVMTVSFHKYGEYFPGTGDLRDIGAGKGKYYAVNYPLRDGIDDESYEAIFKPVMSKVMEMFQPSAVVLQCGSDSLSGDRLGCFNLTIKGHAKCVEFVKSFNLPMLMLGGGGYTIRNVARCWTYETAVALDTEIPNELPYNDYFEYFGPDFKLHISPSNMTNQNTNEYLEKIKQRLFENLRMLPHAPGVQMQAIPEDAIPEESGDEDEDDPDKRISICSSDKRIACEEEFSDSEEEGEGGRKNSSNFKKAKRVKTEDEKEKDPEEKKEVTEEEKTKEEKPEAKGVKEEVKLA
structure (smiles),measurement,setting,value
"O=C(NO)c1cnc(NC2(c3ccccc3)CCN(C(=O)Nc3ccccc3)CC2)nc1 [Compound 001, N-hydroxy-2-((4-phenyl-1-(phenylcarbamoyl)piperidin-4-yl)amino)pyrimidine-5-carboxamide]",IC50,HDAC1,38 nM
same,selectivity for HDAC1 and 2,HDAC1; relative to HDAC3,30 fold
same,IC50,HDAC3,1010 nM
